Data taken from PubChem BioAssay (NCI).
Values joined by “and” are separate entries in the source; they are usually repeats but may differ in a detail not shown here. Equal values may be shown once.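 The compound was tested at five concentrations on cells cultured in 96-well plates, with a 48-hour exposure period. GI50 = concentration required for 50% inhibition of growth. TGI marks complete inhibition of growth.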

Legend:
Test in all cases: inhibition of tumour cell growth, NCI panel, 48 h
SNB-75 CNS = system: SNB-75 CNS
SK-OV-3 ovarian = system: SK-OV-3 ovarian
EKVX NSCLC = system: EKVX NSCLC
HT29 colon = system: HT29 colon
CAKI-1 renal = system: CAKI-1 renal
UO-31 renal = system: UO-31 renal
SNB-19 CNS = system: SNB-19 CNS
K-562 leukemia = system: K-562 leukemia
HOP-92 NSCLC = system: HOP-92 NSCLC
SK-MEL-28 melanoma = system: SK-MEL-28 melanoma

| Compound | GI50 (SNB-75 CNS) | TGI (SNB-75 CNS) | GI50 (SK-OV-3 ovarian) [µM] | TGI (SK-OV-3 ovarian) [µM] | GI50 (EKVX NSCLC) [µM] | TGI (EKVX NSCLC) | GI50 (HT29 colon) | TGI (HT29 colon) | GI50 (CAKI-1 renal) [µM] | TGI (CAKI-1 renal) | GI50 (UO-31 renal) | TGI (UO-31 renal) | GI50 (SNB-19 CNS) | TGI (SNB-19 CNS) | GI50 (K-562 leukemia) | TGI (K-562 leukemia) [µM] | GI50 (HOP-92 NSCLC) | TGI (HOP-92 NSCLC) | GI50 (SK-MEL-28 melanoma) | TGI (SK-MEL-28 melanoma) |
| --- | --- | --- | --- | --- | --- | --- | --- | --- | --- | --- | --- | --- | --- | --- | --- | --- | --- | --- | --- | --- |
| Cc1nnc(-c2ccc(C)c(-c3ccc(C(=O)Nc4cccc(C#N)c4)cc3)c2)o1 | > 25 µM | > 25 µM | > 25 | > 25 | > 25 | > 25 µM | > 25 µM | > 25 µM | > 25 | > 25 µM | > 25 µM | > 25 µM | > 25 µM | > 25 µM | > 25 µM | > 25 | > 25 µM | > 25 µM | > 25 µM | > 25 µM |
| CN(C)Cc1cc(C(F)(F)F)ccc1C(O)(c1ccccc1)c1ccccc1 |  | 21.8 µM |  | 56.5 |  | 29.6 µM |  | 21.6 µM |  | 31.2 µM |  | 28.5 µM |  | 38.4 µM |  | 24.4 |  | 27 µM |  | 31 µM |
| O=C1COc2cc(NC(=S)Nc3ccccc3)ccc2N1 |  | > 100 µM |  | > 100 |  | > 100 µM |  | > 100 µM |  | > 100 µM |  | > 100 µM |  | > 100 µM |  | > 100 |  | > 100 µM |  | > 100 µM |
| CCCCCCCCn1ccc2cc(NC(=O)Cn3cc(CN4CCCCCC4)nn3)ccc21 | 1.55 µM | 2.91 µM | 1.75 | 3.33 | 1.68 | 3.43 µM | 1.73 µM | 3.46 µM | 1.49 | 2.89 µM | 1.48 µM | 2.81 µM | 1.8 µM | 3.46 µM | 1.67 µM | 3.6 | 1.26 µM | 2.61 µM | 1.82 µM | 3.3 µM |
| O=C1C(=O)c2ccccc2C(O)=C1C(C1=C(O)c2ccccc2C(=O)C1=O)c1ccc(Cl)cc1 |  | 9.83 µM |  | 33.5 |  | 32.1 µM |  | 20.9 µM |  | 23.8 µM |  | 24.5 µM |  | 41.8 µM |  | 39.2 |  | 44.1 µM |  | 55.5 µM |
| NC1=NN(c2ccccc2)C(=O)C1C(=O)CCC(=O)Nc1cccc(Cl)c1 (configuration not stated) |  | > 100 µM |  | > 100 |  | > 100 µM |  | > 100 µM |  | > 100 µM |  | > 100 µM |  | > 100 µM |  | > 100 |  | > 100 µM |  | > 100 µM |
| CC(=O)Oc1cc2c(cc1OC(C)=O)C1(C)CCC2(C)c2cc(OC(C)=O)c(OC(C)=O)cc21 |  | 91.7 µM |  | 72.5 |  | > 100 µM |  | > 100 µM |  | 90.5 µM |  | 89.1 µM |  | 22.4 µM |  | 81.8 |  | 38.2 µM |  | > 100 µM |
| Cc1cn(C2CC(OC(=O)c3ccc(Cl)cc3)C(COC(=O)c3ccc(Cl)cc3)O2)c(=O)[nH]c1=O (configuration not stated) |  | > 100 µM |  | > 100 |  | > 100 µM |  | > 100 µM |  | > 100 µM |  | > 100 µM |  | > 100 µM |  | > 100 |  | > 100 µM |  | > 100 µM |
| COc1ccc2nc3cc(Cl)ccc3c(Sc3ccc([N+](=O)[O-])cc3C)c2c1 |  | > 100 µM |  | > 100 |  | > 100 µM |  |  |  | > 100 µM |  | > 100 µM |  | > 100 µM |  | > 100 |  | > 100 µM |  | > 100 µM |
| O=C(Nc1ccc(C(F)(F)F)cc1[N+](=O)[O-])C(=O)C1NC(=S)NC1=O (configuration not stated) |  | 97.2 µM |  | > 100 |  | > 100 µM |  | > 100 µM |  | > 100 µM |  | > 100 µM |  | > 100 µM |  | > 100 |  | > 100 µM |  | > 100 µM |
| N/N=C\c1c2ccccc2c(=O)n2c1oc1ccccc12 | 11.5 µM | 31 µM | 17.6 | 34.3 | 10.2 | 26.2 µM | 22.1 µM | > 100 µM | 14.2 | 27.3 µM | 25.8 µM | 87.7 µM | 17.8 µM | 38.7 µM | 20.8 µM | 67.6 | 18.9 µM | 38.7 µM | 18.8 µM | 38.7 µM |
| C[C@]12CC=CC(=O)[C@@]1(C)CCC(=O)C2 |  | > 100 µM |  | > 100 |  | > 100 µM |  | > 100 µM |  | > 100 µM |  | > 100 µM |  | > 100 µM |  | > 100 |  | > 100 µM |  | > 100 µM |
| CSC(SC)(C(=O)O)c1cc(-c2c(Cl)cccc2Cl)no1 |  | > 100 µM |  | > 100 |  | > 100 µM |  | > 100 µM |  | > 100 µM |  | 92.2 µM |  | > 100 µM |  | > 100 |  | > 100 µM |  | > 100 µM |
| O=S(=O)(C1=CC(S(=O)(=O)c2ccccc2)CN(Cc2ccccc2)C1c1cccc2ccccc12)c1ccccc1 (configuration not stated) |  | > 69 µM |  | > 69 |  | > 69 µM |  | > 69 µM |  | > 69 µM |  | > 69 µM |  | > 69 µM |  | > 69 |  | > 69 µM |  | > 69 µM |
| CCOC1C(Br)Cn2c(=O)c3cc4ccccc4cc3c(=O)n2C1C (configuration not stated) |  | > 100 µM |  | > 100 |  | > 100 µM |  | > 100 µM |  | > 100 µM |  | > 100 µM |  | > 100 µM |  | > 100 |  | > 100 µM |  | > 100 µM |
| C=CC(=O)N1CCC(Oc2cc3c(Nc4ccc(Cl)c(Cl)c4F)ncnc3cc2OC)CC1 | 1.07 µM and 0.48 µM | 13.7 µM and 4.4 µM | < 0.001 |  | < 0.001 | 17.2 µM and > 10 µM | 1.71 µM and 1.52 µM | 13.7 µM and > 9.34 µM |  | 12.6 µM and 2.36 µM | 0.0493 µM and 0.0566 µM | 4.75 µM and 3.72 µM | 8.97 µM and 6.52 µM | 23.9 µM and > 10 µM | 3.98 µM and 2.68 µM | > 100 | 0.944 µM and 0.338 µM | 5.59 µM and 3.07 µM | 11.6 µM and > 9.46 µM | 25.8 µM and > 10 µM |
| C=C(C)C1CC2(C)C(C)CC(O)CC2C(OC(=O)C=C(C)C)C1O (configuration not stated) |  | 40.5 µM |  | > 100 |  | > 100 µM |  | 69.8 µM |  | > 100 µM |  | 74.4 µM |  | > 100 µM |  | > 100 |  | > 100 µM |  | > 100 µM |
| CN(C)CCC(=O)N1C/C(=C\c2ccc(Cl)c(Cl)c2)C(=O)/C(=C/c2ccc(Cl)c(Cl)c2)C1 |  | 1.3 µM |  | 3.76 |  | 1.53 µM |  | 0.495 µM |  | 0.984 µM |  | 0.862 µM |  | 2.13 µM |  | 0.572 |  | 0.977 µM |  | 1.82 µM |
